Reference: ChEMBL document CHEMBL3286114, “Dual RXR Agonists and RAR Antagonists Based on the Stilbene Retinoid Scaffold” (ACS Med Chem Lett, 2014)
Calls of active or inactive are those of the source. No cut-off for these calls is given here.

Assays:
Format in all cases: cell-based
[1] = target: T1, Retinoic acid receptor RXR-beta (Homo sapiens) (UniProt P28702); assay: Agonist activity at Gal4-fused human RXR-beta transfected in human HeLa cells at 51 nM after 12 hrs by luciferase reporter gene assay relative to control
T1 sequence (whole entry): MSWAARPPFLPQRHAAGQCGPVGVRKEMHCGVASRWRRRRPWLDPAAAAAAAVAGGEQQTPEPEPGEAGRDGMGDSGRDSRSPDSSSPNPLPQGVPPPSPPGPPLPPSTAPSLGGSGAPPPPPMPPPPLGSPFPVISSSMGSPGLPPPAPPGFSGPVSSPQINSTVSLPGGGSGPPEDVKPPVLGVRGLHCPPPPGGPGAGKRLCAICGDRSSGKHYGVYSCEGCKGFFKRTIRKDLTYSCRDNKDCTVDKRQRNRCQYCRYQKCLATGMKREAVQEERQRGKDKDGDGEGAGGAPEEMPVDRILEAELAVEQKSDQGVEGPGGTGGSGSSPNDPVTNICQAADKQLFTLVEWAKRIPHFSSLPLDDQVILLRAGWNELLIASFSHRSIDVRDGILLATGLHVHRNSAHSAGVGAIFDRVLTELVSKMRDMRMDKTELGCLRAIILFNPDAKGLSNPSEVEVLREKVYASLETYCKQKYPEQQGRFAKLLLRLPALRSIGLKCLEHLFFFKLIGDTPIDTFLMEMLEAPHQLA

[2] = target: T1, Retinoic acid receptor RXR-beta (Homo sapiens); assay: Agonist activity at Gal4-fused human RXR-beta transfected in human HeLa cells at 125 nM after 12 hrs by luciferase reporter gene assay relative to control
[3] = target: T1, Retinoic acid receptor RXR-beta (Homo sapiens); assay: Agonist activity at Gal4-fused human RXR-beta transfected in human HeLa cells at 875 nM after 12 hrs by luciferase reporter gene assay relative to control
[4] = target: T1, Retinoic acid receptor RXR-beta (Homo sapiens); assay: Agonist activity at Gal4-fused human RXR-beta transfected in human HeLa cells at 541 nM after 12 hrs by luciferase reporter gene assay relative to control
[5] = target: T2, Retinoic acid receptor alpha (Mus musculus) (UniProt P11416); assay: Agonist activity at Gal4-fused mouse RAR-alpha transfected in human HeLa cells after 12 hrs by luciferase reporter gene assay
T2 sequence (whole entry): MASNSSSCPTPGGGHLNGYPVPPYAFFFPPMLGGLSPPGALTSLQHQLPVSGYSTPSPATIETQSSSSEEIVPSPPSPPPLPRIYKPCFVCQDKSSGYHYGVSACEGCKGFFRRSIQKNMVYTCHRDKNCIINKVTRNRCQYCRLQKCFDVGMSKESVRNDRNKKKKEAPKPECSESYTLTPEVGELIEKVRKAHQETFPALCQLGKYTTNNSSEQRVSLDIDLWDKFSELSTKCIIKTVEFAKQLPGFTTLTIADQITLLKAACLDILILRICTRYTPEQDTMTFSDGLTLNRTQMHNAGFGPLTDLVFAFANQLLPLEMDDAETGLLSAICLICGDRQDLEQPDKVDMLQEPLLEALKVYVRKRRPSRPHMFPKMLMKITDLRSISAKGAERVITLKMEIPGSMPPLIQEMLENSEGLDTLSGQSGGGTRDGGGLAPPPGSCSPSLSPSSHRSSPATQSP

[6] = target: T3, Retinoic acid receptor beta (Mus musculus) (UniProt P22605); assay: Agonist activity at Gal4-fused mouse RAR-beta transfected in human HeLa cells at 10 uM after 12 hrs by luciferase reporter gene assay
T3 sequence (whole entry): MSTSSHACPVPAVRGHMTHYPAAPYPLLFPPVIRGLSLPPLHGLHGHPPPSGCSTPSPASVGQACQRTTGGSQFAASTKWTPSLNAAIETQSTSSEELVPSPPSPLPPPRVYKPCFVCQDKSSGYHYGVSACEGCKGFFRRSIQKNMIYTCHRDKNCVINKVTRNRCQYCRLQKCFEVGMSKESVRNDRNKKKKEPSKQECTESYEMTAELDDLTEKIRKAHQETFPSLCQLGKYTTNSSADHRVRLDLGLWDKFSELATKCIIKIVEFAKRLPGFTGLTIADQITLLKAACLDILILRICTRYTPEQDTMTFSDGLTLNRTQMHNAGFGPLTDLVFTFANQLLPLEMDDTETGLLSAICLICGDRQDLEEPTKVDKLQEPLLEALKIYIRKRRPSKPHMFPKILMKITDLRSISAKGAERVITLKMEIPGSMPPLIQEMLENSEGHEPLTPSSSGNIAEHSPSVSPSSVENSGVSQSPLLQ

[7] = target: T4, Retinoic acid receptor gamma (Mus musculus) (UniProt P18911); assay: Agonist activity at Gal4-fused mouse RAR-gamma transfected in human HeLa cells at 10 uM after 12 hrs by luciferase reporter gene assay
T4 sequence (whole entry): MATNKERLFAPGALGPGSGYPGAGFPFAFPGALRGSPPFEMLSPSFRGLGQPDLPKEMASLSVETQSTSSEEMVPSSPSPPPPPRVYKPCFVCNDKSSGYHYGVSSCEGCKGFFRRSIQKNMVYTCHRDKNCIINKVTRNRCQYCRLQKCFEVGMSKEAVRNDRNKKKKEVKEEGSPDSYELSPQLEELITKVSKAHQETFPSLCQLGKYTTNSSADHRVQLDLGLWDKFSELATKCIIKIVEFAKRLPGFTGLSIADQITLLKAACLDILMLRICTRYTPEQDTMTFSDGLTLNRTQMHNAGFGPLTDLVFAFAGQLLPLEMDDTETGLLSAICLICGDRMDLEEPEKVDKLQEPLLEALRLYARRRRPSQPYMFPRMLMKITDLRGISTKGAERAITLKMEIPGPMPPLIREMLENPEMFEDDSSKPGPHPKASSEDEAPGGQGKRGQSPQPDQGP

[8] = target: T3, Retinoic acid receptor beta (Mus musculus); assay: Agonist activity at Gal4-fused mouse RAR-beta transfected in human HeLa cells at >1 uM after 12 hrs by luciferase reporter gene assay
[9] = target: T1, Retinoic acid receptor RXR-beta (Homo sapiens); assay: Agonist activity at Gal4-fused human RXR-beta transfected in human HeLa cells after 12 hrs by luciferase reporter gene assay
[10] = target: T2, Retinoic acid receptor alpha (Mus musculus); assay: Agonist activity at Gal4-fused mouse RAR-alpha transfected in human HeLa cells at 1 uM after 12 hrs by luciferase reporter gene assay
[11] = target: T3, Retinoic acid receptor beta (Mus musculus); assay: Agonist activity at Gal4-fused mouse RAR-beta transfected in human HeLa cells at 1 uM after 12 hrs by luciferase reporter gene assay
[12] = target: T4, Retinoic acid receptor gamma (Mus musculus); assay: Agonist activity at Gal4-fused mouse RAR-gamma transfected in human HeLa cells at 1 uM after 12 hrs by luciferase reporter gene assay
[13] = target: T2, Retinoic acid receptor alpha (Mus musculus); assay: Antagonist activity at Gal4-fused mouse RAR-alpha transfected in human HeLa cells after 12 hrs by luciferase reporter gene assay
[14] = target: T3, Retinoic acid receptor beta (Mus musculus); assay: Antagonist activity at Gal4-fused mouse RAR-beta transfected in human HeLa cells after 12 hrs by luciferase reporter gene assay
[15] = target: T4, Retinoic acid receptor gamma (Mus musculus); assay: Antagonist activity at Gal4-fused mouse RAR-gamma transfected in human HeLa cells after 12 hrs by luciferase reporter gene assay

Compound | fold change (FC) [1] | fold change (FC) [2] | fold change (FC) [3] | fold change (FC) [4] | Activity [5] | Activity [6] | Activity [7] | Activity [8] | Activity [9] | Activity [10] | Activity [11] | Activity [12] | Activity [13] | Activity [14] | Activity [15]
C/C(=C\c1ccc(C(=O)O)cc1)c1ccc2c(c1)C(C)(C)CCC2(C)C | 15 | 15 | 15 | 15 |  |  |  |  |  |  |  |  |  |  | 
O=C(O)c1ccc(NC(=O)c2ccc3c(-c4ccccc4)ccc(-c4ccccc4)c3c2)c(F)c1 |  |  |  |  | inactive | Active | Active |  |  |  |  |  |  |  | 
O=C(O)c1ccc(NC(=O)c2ccc3c(-c4ccccc4)ccc(-c4ccccc4)c3c2)c(Cl)c1 |  |  |  |  | inactive | Active | Active |  |  |  |  |  |  |  | 
O=C(O)c1ccc(NC(=O)c2ccc3c(-c4ccccc4)ccc(-c4ccccc4)c3c2)cc1 |  |  |  |  | inactive | Active | Active | Active |  |  |  |  |  |  | 

Further lines, results first:

fold change (FC) [1] | fold change (FC) [2] | fold change (FC) [3] | fold change (FC) [4] | Activity [5] | Activity [6] | Activity [7] | Activity [8] | Activity [9] | Activity [10] | Activity [11] | Activity [12] | Activity [13] | Activity [14] | Activity [15] | Compound
15 | 15 | 15 | 15 |  |  |  |  | Active | inactive | inactive | inactive | Active | Active | Active | O=C(O)c1ccc(/C=C/c2ccc3c(-c4ccccc4)ccc(-c4ccccc4)c3c2)c(F)c1
15 | 15 | 15 | 15 |  |  |  |  | Active | inactive | inactive | inactive | Active | Active | Active | O=C(O)c1ccc(/C=C/c2ccc3c(-c4ccccc4)ccc(-c4ccccc4)c3c2)c(Br)c1
15 | 15 | 15 | 15 |  |  |  |  | Active | inactive | inactive | inactive | Active | Active | Active | O=C(O)c1ccc(/C=C/c2ccc3c(-c4ccccc4)ccc(-c4ccccc4)c3c2)cc1
